Measured values as given in the NIST ThermoML archive (doi:10.1016/j.jct.2007.05.005).
Where “and” joins values, the source holds several entries; their conditions need not be identical. Equal values may be shown once. ± gives the expanded uncertainty stated by the source.

Legend:
[1] = xn = mol fraction of the nth substance listed; conditions: 101.3 kPa, Liquid, x2 = 0; for speed of sound: Sing-around technique in a fixed-path interferometer
[2] = 101.3 kPa, Liquid; for speed of sound: Sing-around technique in a fixed-path interferometer

Question: For `CCc1ccccc1` [ethylbenzene] + CCOC(C)(C)C, which speed of sound ([1]; 288.15 K) is on record?
Answer: The speed of sound was 1359.1 ± 2.2 m/s.

Question: And the mass density ([1]; 288.15 K)?
Answer: The mass density was 870.736 ± 0.69 kg/m3.

Question: What about the speed of sound ([1]; 298.15 K) of the same molecule?
Answer: The speed of sound was 1316.2 ± 2.2 m/s.

Question: What about the mass density ([1]; 298.15 K) of the same molecule?
Answer: The mass density was 862.068 ± 0.72 kg/m3.

Question: What about the speed of sound ([1]; 323.15 K) of the same molecule?
Answer: Its speed of sound is 1213.6 ± 2.2 m/s.

Question: And the mass density ([1]; 323.15 K)?
Answer: Its mass density is 840.054 ± 0.78 kg/m3.

Question: For `CC(C)CC(C)(C)C` [2,2,4-trimethylpentane] + CCOC(C)(C)C, which speed of sound ([1]; 288.15 K) is on record?
Answer: The speed of sound was 1124.3 ± 2.2 m/s.

Question: What about the mass density ([1]; 288.15 K) of the same molecule?
Answer: Its mass density is 695.948 ± 1.2 kg/m3.

Question: What about the speed of sound ([1]; 298.15 K) of the same molecule?
Answer: The speed of sound was 1082.2 ± 2.2 m/s.

Question: What about the mass density ([1]; 298.15 K) of the same molecule?
Answer: The mass density was 687.749 ± 1.2 kg/m3.

Question: What about the speed of sound ([1]; 323.15 K) of the same molecule?
Answer: The speed of sound was 979.25 ± 2.2 m/s.

Question: What about the mass density ([1]; 323.15 K) of the same molecule?
Answer: Its mass density is 666.832 ± 1.3 kg/m3.

Question: Which mass density ([2]; 288.15 K) does the source give for `CCO` [ethanol] here?
Answer: Its mass density is 793.644 ± 0.93 kg/m3.

Question: What about the speed of sound ([2]; 288.15 K) of the same molecule?
Answer: Its speed of sound is 1177.3 ± 2.2 m/s.

Question: What about the mass density ([2]; 298.15 K) of the same molecule?
Answer: Its mass density is 785.082 ± 0.95 kg/m3.

Question: What about the speed of sound ([2]; 298.15 K) of the same molecule?
Answer: The speed of sound was 1142.4 ± 2.2 m/s.

Question: And the mass density ([2]; 323.15 K)?
Answer: Its mass density is 763.177 ± 1 kg/m3.

Question: What about the speed of sound ([2]; 323.15 K) of the same molecule?
Answer: The speed of sound was 1059.3 ± 2.1 m/s.

Question: For `c1ccccc1` [benzene] + CCOC(C)(C)C, which speed of sound ([1]; 288.15 K) is on record?
Answer: Its speed of sound is 1345.5 ± 2.2 m/s.

Question: And the mass density ([1]; 288.15 K)?
Answer: Its mass density is 884.183 ± 0.65 kg/m3.

Question: And the speed of sound ([1]; 298.15 K)?
Answer: The speed of sound was 1298.3 ± 2.2 m/s.

Question: And the mass density ([1]; 298.15 K)?
Answer: The mass density was 873.52 ± 0.68 kg/m3.

Question: What about the speed of sound ([1]; 323.15 K) of the same molecule?
Answer: Its speed of sound is 1184.6 ± 2.2 m/s.

Question: And the mass density ([1]; 323.15 K)?
Answer: The mass density was 846.641 ± 0.77 kg/m3.

Question: For `Cc1ccccc1` [toluene] + CCOC(C)(C)C, which speed of sound ([1]; 288.15 K) is on record?
Answer: Its speed of sound is 1347.5 ± 2.2 m/s.

Question: What about the mass density ([1]; 288.15 K) of the same molecule?
Answer: Its mass density is 871.457 ± 0.69 kg/m3.

Question: What about the speed of sound ([1]; 298.15 K) of the same molecule?
Answer: The speed of sound was 1303.4 ± 2.2 m/s.

Question: What about the mass density ([1]; 298.15 K) of the same molecule?
Answer: Its mass density is 862.173 ± 0.72 kg/m3.

Question: And the speed of sound ([1]; 323.15 K)?
Answer: The speed of sound was 1196.6 ± 2.2 m/s.

Question: And the mass density ([1]; 323.15 K)?
Answer: The mass density was 838.706 ± 0.79 kg/m3.

Question: For `CCOC(C)(C)C` [2-ethoxy-2-methylpropane], which mass density ([2]; 288.15 K) is on record?
Answer: The mass density was 745.656 ± 1.1 kg/m3 and 744.955 ± 1.1 kg/m3.

Question: And the speed of sound ([2]; 288.15 K)?
Answer: The speed of sound was 1078.9 ± 2.2 m/s and 1076.4 ± 2.2 m/s.

Question: What about the mass density ([2]; 298.15 K) of the same molecule?
Answer: The mass density was 735.357 ± 1.1 kg/m3 and 734.806 ± 1.1 kg/m3.

Question: What about the speed of sound ([2]; 298.15 K) of the same molecule?
Answer: Its speed of sound is 1033.2 ± 2.2 m/s and 1031 ± 2.2 m/s.

Question: And the mass density ([2]; 303.15 K)?
Answer: Its mass density is 730.186 ± 1.1 kg/m3.

Question: What about the speed of sound ([2]; 303.15 K) of the same molecule?
Answer: The speed of sound was 1010.2 ± 2.2 m/s.

Question: And the mass density ([2]; 313.15 K)?
Answer: Its mass density is 719.687 ± 1.2 kg/m3.

Question: What about the speed of sound ([2]; 313.15 K) of the same molecule?
Answer: The speed of sound was 965.87 ± 2.2 m/s.

Question: And the mass density ([2]; 323.15 K)?
Answer: The mass density was 709.007 ± 1.2 kg/m3 and 708.642 ± 1.2 kg/m3 and 708.996 ± 1.2 kg/m3.

Question: What about the speed of sound ([2]; 323.15 K) of the same molecule?
Answer: The speed of sound was 922.48 ± 2.2 m/s and 920.73 ± 2.2 m/s and 922.08 ± 2.2 m/s.

Question: Which mass density ([2]; 288.15 K) does the source give for `CCc1ccccc1` [ethylbenzene] here?
Answer: Its mass density is 870.736 ± 0.69 kg/m3.

Question: And the speed of sound ([2]; 288.15 K)?
Answer: The speed of sound was 1359.1 ± 2.2 m/s.

Question: And the mass density ([2]; 298.15 K)?
Answer: The mass density was 862.068 ± 0.72 kg/m3.

Question: And the speed of sound ([2]; 298.15 K)?
Answer: Its speed of sound is 1316.2 ± 2.2 m/s.

Question: What about the mass density ([2]; 323.15 K) of the same molecule?
Answer: The mass density was 840.054 ± 0.78 kg/m3.

Question: And the speed of sound ([2]; 323.15 K)?
Answer: The speed of sound was 1213.6 ± 2.2 m/s.

Question: Which results are given for `c1ccccc1` [benzene]?
Answer: mass density ([2]; 288.15 K): 884.183 ± 0.65 kg/m3; speed of sound ([2]; 288.15 K): 1345.5 ± 2.2 m/s; mass density ([2]; 298.15 K): 873.52 ± 0.68 kg/m3; speed of sound ([2]; 298.15 K): 1298.3 ± 2.2 m/s; mass density ([2]; 323.15 K): 846.641 ± 0.77 kg/m3; speed of sound ([2]; 323.15 K): 1184.6 ± 2.2 m/s

Question: For `Cc1ccccc1` [toluene], which mass density ([2]; 288.15 K) is on record?
Answer: The mass density was 871.457 ± 0.69 kg/m3.

Question: What about the speed of sound ([2]; 288.15 K) of the same molecule?
Answer: Its speed of sound is 1347.5 ± 2.2 m/s.

Question: What about the mass density ([2]; 298.15 K) of the same molecule?
Answer: Its mass density is 862.173 ± 0.72 kg/m3.

Question: What about the speed of sound ([2]; 298.15 K) of the same molecule?
Answer: The speed of sound was 1303.4 ± 2.2 m/s.

Question: What about the mass density ([2]; 323.15 K) of the same molecule?
Answer: The mass density was 838.706 ± 0.79 kg/m3.

Question: And the speed of sound ([2]; 323.15 K)?
Answer: The speed of sound was 1196.6 ± 2.2 m/s.

Question: With `CC(C)(C)O` [2-methylpropan-2-ol] as the molecule, how does the mass density ([2]; 303.15 K) read?
Answer: Its mass density is 775.028 ± 0.98 kg/m3.

Question: And the speed of sound ([2]; 303.15 K)?
Answer: Its speed of sound is 1098.2 ± 2.2 m/s.

Question: And the mass density ([2]; 313.15 K)?
Answer: Its mass density is 764.554 ± 1 kg/m3.

Question: And the speed of sound ([2]; 313.15 K)?
Answer: The speed of sound was 1055.4 ± 2.2 m/s.

Question: And the mass density ([2]; 323.15 K)?
Answer: The mass density was 753.679 ± 1 kg/m3.

Question: What about the speed of sound ([2]; 323.15 K) of the same molecule?
Answer: The speed of sound was 1013 ± 2.2 m/s.

Question: What does the source list for `CC(C)(C)O` [2-methylpropan-2-ol] + CCOC(C)(C)C?
Answer: speed of sound ([1]; 303.15 K): 1098.2 ± 2.2 m/s; mass density ([1]; 303.15 K): 775.028 ± 0.98 kg/m3; speed of sound ([1]; 313.15 K): 1055.4 ± 2.2 m/s; mass density ([1]; 313.15 K): 764.554 ± 1 kg/m3; speed of sound ([1]; 323.15 K): 1013 ± 2.2 m/s; mass density ([1]; 323.15 K): 753.679 ± 1 kg/m3

Question: What does the source list for `CC(C)CC(C)(C)C` [2,2,4-trimethylpentane]?
Answer: mass density ([2]; 288.15 K): 695.948 ± 1.2 kg/m3; speed of sound ([2]; 288.15 K): 1124.3 ± 2.2 m/s; mass density ([2]; 298.15 K): 687.749 ± 1.2 kg/m3; speed of sound ([2]; 298.15 K): 1082.2 ± 2.2 m/s; mass density ([2]; 323.15 K): 666.832 ± 1.3 kg/m3; speed of sound ([2]; 323.15 K): 979.25 ± 2.2 m/s

Question: For `CCO` [ethanol] + CCOC(C)(C)C, which speed of sound ([1]; 288.15 K) is on record?
Answer: Its speed of sound is 1177.3 ± 2.2 m/s.

Question: And the mass density ([1]; 288.15 K)?
Answer: Its mass density is 793.644 ± 0.93 kg/m3.

Question: And the speed of sound ([1]; 298.15 K)?
Answer: Its speed of sound is 1142.4 ± 2.2 m/s.

Question: What about the mass density ([1]; 298.15 K) of the same molecule?
Answer: The mass density was 785.082 ± 0.95 kg/m3.

Question: And the speed of sound ([1]; 323.15 K)?
Answer: The speed of sound was 1059.3 ± 2.1 m/s.

Question: What about the mass density ([1]; 323.15 K) of the same molecule?
Answer: Its mass density is 763.177 ± 1 kg/m3.
